In patent US6432640B1, “P53-induced apoptosis” (priority 1997, dated 2002):

How the values were obtained:
Format in all cases: cell-based, human
DLD-1 cells [1] = assay: p53-induced apoptosis in Ad-p53-infected CRC cells (H33258 staining); details: for block of apoptosis: inhibitor given at (up to) 8 hours following Ad-p53 infection, apoptosis at 24 hours
Protocol: (§1) Cells and RNA. All cell lines used in this study were obtained from the American Type Culture Collection and were cultured in McCoy's medium supplemented with 10% fetal bovine serum (FBS). Cells were infected with recombinant adenoviruses containing either the p53 gene or the β-galactosidase gene (26) at a multiplicity of infection of 10-100. RNA was purified from cells at various times after infection using the MessageMaker Kit (Gibco/BRL). Northern blot analysis was performed as described (26).
(§2) Flow cytometry and other assays. Cells were collected with the aid of trypsin and incubated with CM-H2DCF-DA or NAO (Molecular Probes, Eugene, Oreg.) at concentrations of 10 and 0.4 μM, respectively, for 20 minutes at 37° C. prior to analysis by flow cytometry (14,15). To determine the fraction of apoptotic cells after various treatments, cells were stained with the DNA-binding dye H33258 and evaluated by fluorescence microscopy or flow cytometry as described (1). Superoxide production was assessed with lucigenin (29). In brief, 4-5×10^6 cells were collected with rubber policeman and resuspended in 1 ml of Earle's Balanced Salt Solution (Gibco BRL 14015-069, Life Technologies). Dark-adapted lucigenin (bis-N-methulacridinium nitrate, Sigma M8010) was added to the samples to a final concentration of 20 μM. Light emission was detected using a Berthold LB 9505C luminometer for 60 minutes at 37° C. Glutathione concentrations were measured using an assay kit purchased from Oxford Biomedical Res. Inc. according to the manufacturer's instructions. Caspase activation was assessed by cleavage of PARP (polyADP-ribose polymerase). Lysates from cells infected with Ad-p53 were Western blotted with an anti-PARP antibody, and the cleavage fragments were quantitated by densitometry (4).
To evaluate the patterns of gene expression following p53 expression, we employed SAGE, a technique which allows the quantitative evaluation of cellular mRNA populations (3). In brief, the method revolves around short sequence “tags” (11 bp), generated from defined positions within each mRNA molecule. Expression patterns are deduced from the abundance of individual tags. […] As previously shown, DLD-1 cells are among the ˜50% of CRC lines that undergo apoptosis in response to p53 (4). RNA was purified from cells 16 hours after infection, at least 8 hours before the onset of morphological signs of apoptosis.
To determine whether these steps were causally associated, we inhibited each step with specific pharmacologic agents and determined the effect of this inhibition on other components of the pathway.

DLD-1 cells [2] = assay: ROS production in Ad-p53-infected cells (lucigenin chemiluminescence); details: treated 12 hours after Ad-p53 infection
Protocol: as §2, with “(4). […]” for “(4).”

PIGs (p53-induced genes) = assay: PIG expression in DLD-1 cells (Northern blot); details: for PIG induction by other inducers of ROS or apoptosis: DLD-1 cells
Protocol: as §1
To determine the specificity of PIG expression for the p53-dependent apoptotic process, we performed experiments with other inducers of ROS or apoptosis.

DLD-1 cells [3] = assay: p53-mediated growth arrest dependent on p21 (flow cytometry)
Protocol: as §2, with “(4). […]” for “(4).”

DLD-1 cells [4] = assay: Toxicity of inhibitor to cells at the dose used; details: 100 μM
Protocol: Finally, we treated cells with bongkrekic acid (BA), a specific inhibitor of mitochondrial ATP translocase which can block the mitochondrial permeability transition pore opening thought to be required for ROS-dependent forms of apoptosis (13). […] BA was non-toxic at the dose used (100 μM). While BA inhibited the p53-apoptotic process dependent on ROS production, it had no effect on the p53-mediated growth arrest dependent on p21 as assessed by flow cytometry.

DLD-1 cells [5] = assay: Cell death by other inducers of apoptosis
Protocol: as §2, with “(4). […]” for “(4).”

PIG3 = PIG3 induction by endogenous p53 in six CRC cancer cell lines
Protocol: as §1
As a further test of the p53-dependency of PIG3 induction, we determined whether PIG3 could be induced by endogenous p53 rather than through the exogenous Ad-p53 source. Six CRC cancer cell lines were each treated with adriamycin, a DNA-damaging and apoptotic-inducing agent known to increase endogenous p53 levels.

DLD-1 cells [6] = assay: ROS by CM-DCF-DA and cardiolipin by NAO, flow cytometry
Protocol: FIG. 4A. DLD-1 cells were infected with Ad-p53 or control (Ad-lacZ) viruses and harvested after 27, 35, or 42 hours. Cells were incubated with CM-DCF-DA, a probe of ROS, or NAO, a probe of the mitochondrial membrane cardiolipin, and analyzed by flow cytometry. The mean fluorescence of the control cells is indicated by vertical lines in each box. The pro-oxidant drug menadione was used as a positive control to induce oxidative stress.
Flow cytometry and other assays. […] To determine the fraction of apoptotic cells after various treatments, cells were stained with the DNA-binding dye H33258 and evaluated by fluorescence microscopy or flow cytometry as described (1). Superoxide production was assessed with lucigenin (29). […] Light emission was detected using a Berthold LB 9505C luminometer for 60 minutes at 37° C. Glutathione concentrations were measured using an assay kit purchased from Oxford Biomedical Res. Inc. according to the manufacturer's instructions. Caspase activation was assessed by cleavage of PARP (polyADP-ribose polymerase). Lysates from cells infected with Ad-p53 were Western blotted with an anti-PARP antibody, and the cleavage fragments were quantitated by densitometry (4). […]

[7] = 100 μM, treated 12 hours after Ad-p53 infection

In the case of c1ccc2c(c1)[I+]c1ccccc1-2 [DPI, diphenyleneiodonium chloride], the inhibition at 25 µM (DLD-1 cells [1]; Homo sapiens, DLD-1, 25 μM, treated 12 hours after Ad-p53 infection, measured 12 hours later, three independent experiments) is reported as 73 to 77%, the inhibition at 25 µM (DLD-1 cells [2]; Homo sapiens, DLD-1, 25 μM, measured 12 hours later, three independent experiments) is reported as 71 to 85% and the PIG3 production (PIGs (p53-induced genes)) is reported as “did not inhibit”.
For OO [hydrogen peroxide], the “PIG induction by other inducers of ROS or apoptosis” value (“PIG induction by other inducers” for short) (PIGs (p53-induced genes)) was “only p21 was induced”.
C[C@@H]1C[C@@H]([C@H](O)CC2CC(=O)NC(=O)C2)C(=O)[C@@H](C)C1 [cycloheximide] was tested, and the block of apoptosis (DLD-1 cells [1]) was 79%.
In the case of CO[C@H](C/C=C\C=C\CC/C=C/C[C@H](C)/C=C/C(=C\C(=O)O)CC(=O)O)/C(C)=C\C=C(/C)C(=O)O [BA, bongkrekic acid], the “inhibition of subsequent apoptosis” value (DLD-1 cells [1]; [7]) is reported as 86-93%, the “effect on p53-mediated growth arrest dependent on p21” value (DLD-1 cells [3]) is reported as “no effect” and the “toxicity at the dose used” value (DLD-1 cells [4]) is reported as “non-toxic”. For the same molecule, the ROS production (DLD-1 cells [2]; 100 μM) was “inhibit neither” and the PIG3 expression (PIGs (p53-induced genes); [7]) was “inhibit neither”.
With ceramide the “PIG induction by other inducers” value (PIGs (p53-induced genes)) was “did not result in the expression of any PIG” and the cell death (DLD-1 cells [5]) was “extensive cell death”.
For OC[C@H]1O[C@@H](n2cnc3cc(Cl)c(Cl)cc32)[C@H](O)[C@@H]1O [DRB, 5,6-dichlorobenimidizole riboside], the block of apoptosis (DLD-1 cells [1]) was 83+/−3% and the “expression of PIGs” value (PIGs (p53-induced genes); Ad-p53-infected cells, DRB at 8 hours following infection) was “inhibit the expression of PIGs”.
In the case of COc1cccc2c1C(=O)c1c(O)c3c(c(O)c1C2=O)C[C@@](O)(C(=O)CO)C[C@@H]3O[C@H]1C[C@H](N)[C@H](O)[C@H](C)O1 [adriamycin], the PIG3 induction (PIG3; three CRC lines with mutant p53 genes) is reported as “not in the three lines with mutant p53 genes” and the PIG3 induction (PIG3; three CRC lines with wild-type p53 genes) is reported as “strongly induced”.
In the case of S=C(S)N1CCCC1 [PDTC, pyrrolidine dithiocarbamate], the “block of apoptosis elicited by p53” value (DLD-1 cells [1]; p53-expressing cells treated with anti-oxidant) is reported as “able to block the apoptosis”.
For CC1=CC(=O)c2ccccc2C1=O [menadione], the “ROS (DCF fluorescence)” value (DLD-1 cells [6]) was “increase in ROS” and the “PIG induction by other inducers” value (PIGs (p53-induced genes)) was “none were induced”.
COc1ccc2c(c1)c(CC(=O)O)c(C)n2C(=O)c1ccc(Cl)cc1 [indomethacin] was tested, and the “PIG induction by other inducers” value (PIGs (p53-induced genes)) was “did not result in the expression of any PIG” and the cell death (DLD-1 cells [5]) was “extensive cell death”.
